Assay results as given in patent US20250302043A1, “BIOCIDE FORMULATIONS FOR THE PRESERVATION OF ANALYTE DETECTION SENSOR(S) AND METHOD(S) OF USE AND THEREOF” (Siemens Healthcare Diagnostics Inc., priority 2019, published 2025).

Tests used:
[1] = tested on: bacteria (including S. aureus, E. coli, P. aeruginosa, and C. maltaromaticum) and fungi (including, C. albicans, A. niger, and Penicillium sp.); assay: Biocide efficacy: concentrations (CFU per milliliter) of contaminants over time on plates treated with biocide; type: cell-based; details: for decrease or elimination of the bacteria and/or fungi contaminants: plates
Description: FIG. 3 is a graphical plot showing the concentrations (measured in CFU per milliliter) of various contaminants (y-axis), such as, by way of example only, bacteria and fungi, over a period of time in weeks (x-axis) on plates treated with a concentration of about 20 ppm hexahydro 1,3,5-tris(2-hydroxy ethyl)-S-triazine (“Onyxide200”) biocide in accordance with the presently disclosed and/or claimed inventive concept(s).
FIG. 4A is a graphical plot showing the concentrations (measured in CFU per milliliter) of various contaminants (y-axis), such as, by way of example only, bacteria and fungi, over a period of time in weeks (x-axis) on plates treated with a concentration of about 5 ppm of 5-chloro-2-methylisothiazol-3(2H)-one (“Cl-MlT”) biocide in accordance with the presently disclosed and/or claimed inventive concept(s).
FIG. 5A is a graphical plot showing the concentrations (measured in CFU per milliliter) of various contaminants (y-axis), such as, by way of example only, bacteria and fungi, over a period of time in weeks (x-axis) on plates treated with a combination of concentrations of about 20 ppm of Onyxide200 biocide and about 4 ppm of Cl-MlT biocide in accordance with the presently disclosed and/or claimed inventive concept(s).
Referring now to FIG. 3, shown therein is a graphical plot showing the concentrations (measured in CFU per milliliter) of various contaminants (y-axis), such as, by way of example only, bacteria (including S. aureus, E. coli, P. aeruginosa, and C. maltaromaticum) and fungi (including, C. albicans, A. niger, and Penicillium sp.) over a period of five weeks (x-axis) on plates treated with a concentration of about 20 ppm of the individual aqueous biocide Onyxide200 in accordance with the presently disclosed and/or claimed inventive concept(s). […]
Referring now to FIG. 5A, shown therein is a graphical plot showing the concentrations (measured in CFU per milliliter) of various contaminants (y-axis), such as, by way of example only, bacteria (including S. aureus, E. coli, P. aeruginosa, and C. maltaromaticum) and fungi (including, C. albicans, A. niger, and Penicillium sp.) over a period of six weeks (x-axis) on plates treated with a combined aqueous biocide formulation comprising concentrations of about 20 ppm of Onyxide200 biocide and about 4 ppm of Cl-MlT biocide in accordance with the presently disclosed and/or claimed inventive concept(s). […] This is synergistic effect allows for a significant increase in the formulation's efficacy for contaminant removal over the individual component biocides (Onyxide200 and Cl-MlT) which comprise the formulation.

[2] = tested on: creatinase enzyme of creatinine detection sensors; assay: Inactivation of the enzyme of creatinine detection sensors after exposure to biocide; type: biochemical; details: individual biocide; creatinine detection sensor; 'in as little as'
Description: Biocides are often used to preserve the at least one analyte detection sensor(s) of a sensor array present in a blood gas, electrolyte, and/or metabolite instrument. However, when such analyte detection sensor(s) is a creatinine detection sensor(s), these biocides inactivate some or all of the enzymes present on and/or in the creatinine sensor(s). In the context of creatinine sensors, such sensors rely on enzymes containing free sulfhydryl groups (—SH) for the proper and continuous functioning of the sensors. Such free sulfhydryl groups chemically react with certain species of biocide(s) (such as, Cl-MlT) that result in the inactivation of the creatinine sensor's(s′) enzymes, thereby resulting in decreased (or total loss) of functional utility and/or functional life of the creatinine sensor(s). Such inactivation can occur very rapidly. […]
Referring now to FIG. 4A, shown therein is a graphical plot showing the concentrations (measured in CFU per milliliter) of various contaminants (y-axis), such as, by way of example only, bacteria (including S. aureus, E. coli, P. aeruginosa, and C. maltaromaticum) and fungi (including, C. albicans, A. niger, and Penicillium sp.) over a period of six weeks (x-axis) on plates treated with a concentration of about 5 ppm of the individual aqueous biocide Cl-MlT in accordance with the presently disclosed and/or claimed inventive concept(s).

Row | SMILES | week of plating at which decrease and/or elimination was obtained for some contaminants ([1]; about 1 ppm individual aqueous biocide, FIG. 4B) | decrease or elimination of the bacteria and/or fungi contaminants ([1]; about 1 ppm individual aqueous biocide, six weeks, FIG. 4B) | week after plating at which decrease and/or elimination was obtained for some contaminants ([1]; about 5 ppm individual aqueous biocide, FIG. 4A) | decrease or elimination of the bacteria and/or fungi contaminants ([1]; about 5 ppm individual aqueous biocide, six weeks, FIG. 4A) | time after exposure at which inactivation of the enzyme occurs [2] | decrease or elimination of the bacteria and/or fungi contaminants ([1]; about 20 ppm individual aqueous biocide, five weeks, FIG. 3)
1 | Cn1sc(Cl)cc1=O [Cl-MlT, 5-chloro-2-methylisothiazol-3(2H)-one] | > 6 week | eventually resulted in a decrease or elimination of only some of the bacteria and/or fungi contaminants | 5 week | eventually resulted in a decrease or elimination of the bacteria and/or fungi contaminants | 1 to 4 days | –
2 | OCCN1CN(CCO)CN(CCO)C1 [Onyxide200, hexahydro 1,3,5-tris(2-hydroxyethyl)-S-triazine] | – | – | – | – | – | did not result in a substantial decrease or elimination of the bacteria and/or fungi contaminants
